Values after ≈ are worked out from the molar mass of the structure shown.
Key:
Assay type in all cases: functional
[1] = test system: Staphylococcus aureus; test: Antibacterial activity against Staphylococcus aureus assessed as reduction in bacterial growth incubated for 24 hrs by broth microdilution method
[2] = test system: Staphylococcus aureus; test: Antibacterial activity against Staphylococcus aureus assessed as diameter of inhibition zone incubated for 24 hrs by […]
[3] = test system: Pseudomonas aeruginosa; test: Antibacterial activity against Pseudomonas aeruginosa ATCC 9027
[4] = test system: Escherichia coli; test: Antibacterial activity against Escherichia coli ATCC 8739
[5] = test system: Staphylococcus aureus; test: Antibacterial activity against Staphylococcus aureus ATCC 6538P
[6] = test system: Aspergillus niger; test: Antifungal activity against Aspergillus niger assessed as fungal growth inhibition
[7] = test system: Candida albicans; test: Antifungal activity against Candida albicans assessed as fungal growth inhibition
[8] = test system: Staphylococcus aureus; test: Antibacterial activity against Staphylococcus aureus
[9] = test system: Bacillus subtilis; test: Antibacterial activity against Bacillus subtilis assessed as reduction in bacterial growth
[10] = test system: Staphylococcus aureus; test: Antibacterial activity against Staphylococcus aureus MTCC 3160 assessed as reduction in bacterial growth
[11] = test system: Bacillus subtilis; test: Antibacterial activity against Bacillus subtilis NCIM 2063 assessed as reduction in bacterial growth incubated for 18 to 24 hrs by broth microdilution method; conditions: time 18-24 hrs
[12] = test system: Bacillus cereus; test: Antibacterial activity against Bacillus cereus NCIM 2156 assessed as reduction in bacterial growth incubated for 18 to 24 hrs by broth microdilution method; conditions: time 18-24 hrs
[13] = test system: Proteus mirabilis; test: Antibacterial activity against Proteus mirabilis NCIM 2241 assessed as reduction in bacterial growth incubated for 18 to 24 hrs by broth microdilution method; conditions: time 18-24 hrs
[14] = test system: Proteus vulgaris; test: Antibacterial activity against Proteus vulgaris NCIM 2027 assessed as reduction in bacterial growth incubated for 18 to 24 hrs by broth microdilution method; conditions: time 18-24 hrs
[15] = test system: Pseudomonas aeruginosa; test: Antibacterial activity against Pseudomonas aeruginosa assessed as reduction in bacterial growth
[16] = test system: Staphylococcus aureus; test: Antibacterial activity against Staphylococcus aureus assessed as inhibition of bacterial growth
[17] = test system: Klebsiella pneumoniae; test: Antibacterial activity against Klebsiella pneumoniae assessed as inhibition of bacterial growth
[18] = test system: Staphylococcus epidermidis; test: Antibacterial activity against Methicillin-sensitive Staphylococcus epidermidis assessed as bacterial growth inhibition
[19] = test system: Staphylococcus epidermidis; test: Antibacterial activity against Methicillin-resistant Staphylococcus epidermidis assessed as bacterial growth inhibition
[20] = test system: Enterococcus faecalis; test: Antibacterial activity against Enterococcus faecalis assessed as bacterial growth inhibition
[21] = test system: Staphylococcus aureus; test: Antibacterial activity against Staphylococcus aureus assessed as reduction in microbial growth incubated for 18 to 24 hrs by serial dilution method; conditions: time 18-24 hrs
[22] = test system: Staphylococcus aureus; test: Antibacterial activity against methicillin-sensitive Staphylococcus aureus assessed as reduction in microbial growth incubated for 18 to 24 hrs by serial dilution method; conditions: time 18-24 hrs
[23] = test system: Staphylococcus aureus; test: Antibacterial activity against methicillin-resistant Staphylococcus aureus assessed as reduction in microbial growth incubated for 18 to 24 hrs by serial dilution method; conditions: time 18-24 hrs
[24] = test system: Enterococcus faecium; test: Antibacterial activity against Enterococcus faecium ATCC 700221
[25] = test system: Candida albicans; test: Antifungal activity against Candida albicans MTCC 227 assessed as inhibition of fungal growth
[26] = test system: Candida albicans; test: Antifungal activity against Candida albicans assessed as fungal growth inhibition by CLSI based method
[27] = test system: Cryptococcus neoformans; test: Antifungal activity against Cryptococcus neoformans assessed as fungal growth inhibition by CLSI based method
[28] = test system: Candida albicans; test: Antifungal activity against Candida albicans Y0109 assessed as reduction in fungal growth incubated for 24 hrs by NCCLS based assay
[29] = test system: Candida albicans; test: Antifungal activity against Candida albicans SC5314 assessed as reduction in fungal growth incubated for 24 hrs by NCCLS based assay
[30] = test system: Nakaseomyces glabratus; test: Antifungal activity against Candida glabrata 537 assessed as reduction in fungal growth incubated for 72 hrs by NCCLS based assay
[31] = test system: Cryptococcus neoformans; test: Antifungal activity against Cryptococcus neoformans 32609 assessed as reduction in fungal growth incubated for 72 hrs by NCCLS based assay
[32] = test system: Aspergillus fumigatus; test: Antifungal activity against Aspergillus fumigatus 7544 assessed as reduction in fungal growth incubated for 5 to 7 days by NCCLS based assay; conditions: time 5-7 day
[33] = test system: Trichophyton rubrum; test: Antifungal activity against Trichophyton rubrum assessed as reduction in fungal growth incubated for 5 to 7 days by NCCLS based assay; conditions: time 5-7 day
[34] = test system: Nannizzia gypsea; test: Antifungal activity against Microsporum gypseum assessed as reduction in fungal growth incubated for 5 to 7 days by NCCLS based assay; conditions: time 5-7 day
[35] = test system: Candida albicans; test: Antifungal activity against Candida albicans IFRC 194 assessed as reduction in fungal growth by CLSI based micro-dilution asssay
[36] = test system: Nakaseomyces glabratus; test: Antifungal activity against Candida glabrata assessed as reduction in fungal growth by CLSI based micro-dilution asssay
[37] = test system: Candida parapsilosis; test: Antifungal activity against Candida parapsilosis IFRC 1269 assessed as reduction in fungal growth by CLSI based micro-dilution asssay; conditions: Lodderomyces parapsilosis
[38] = test system: Pichia kudriavzevii; test: Antifungal activity against Candida krusei IFRC 1012 assessed as reduction in fungal growth by CLSI based micro-dilution asssay
[39] = test system: Candida tropicalis; test: Antifungal activity against Candida tropicalis IFRC 1057 assessed as reduction in fungal growth by CLSI based micro-dilution asssay
[40] = test system: Aspergillus fumigatus; test: […] activity against Aspergillus fumigatus NCIM 2081 assessed as reduction in […] by micro-broth dilution method
[41] = test system: Aspergillus niger; test: […] activity against Aspergillus niger NCIM 2191 assessed as reduction in […] by micro-broth dilution method
[42] = test system: Candida albicans; test: Antifungal activity against Candida albicans NCIM 2087 assessed as fungal growth inhibition
[43] = test system: Escherichia coli; test: Antibacterial activity against Escherichia coli assessed as reduction in bacterial growth
[44] = test system: Bacillus subtilis; test: Antibacterial activity against Bacillus subtilis assessed as diameter of inhibition zone at 100 microg/ml incubated for 18 to 24 hrs by disc-diffusion method; conditions: time 18-24 hrs, read-out: DIZ
[45] = test system: Staphylococcus aureus; test: Antibacterial activity against Staphylococcus aureus assessed as diameter of inhibition zone at 100 microg/ml incubated for 18 to 24 hrs by disc-diffusion method; conditions: time 18-24 hrs, read-out: DIZ
[46] = test system: Escherichia coli; test: Antibacterial activity against Escherichia coli assessed as diameter of inhibition zone at 100 microg/ml incubated for 18 to 24 hrs by disc-diffusion method; conditions: time 18-24 hrs, read-out: DIZ
[47] = test system: Bacillus subtilis; test: Antibacterial activity against Bacillus subtilis NCIM-2063 by CLSI based microdilution assay
[48] = test system: Bacillus cereus; test: Antibacterial activity against Bacillus cereus NCIM-2156 by CLSI based microdilution assay
[49] = test system: Staphylococcus aureus; test: Antibacterial activity against Staphylococcus aureus NCIM-2079 by CLSI based microdilution assay
[50] = test system: Escherichia coli; test: Antibacterial activity against Escherichia coli NCIM-2065 by CLSI based microdilution assay
[51] = test system: Proteus vulgaris; test: Antibacterial activity against Proteus vulgaris NCIM-2027 by CLSI based microdilution assay
[52] = test system: Bacillus subtilis; test: Antibacterial activity against Bacillus subtilis MTTC 441 assessed as reduction in bacterial growth
[53] = test system: Staphylococcus aureus; test: Antibacterial activity against Staphylococcus aureus assessed as reduction in bacterial growth by broth microdilution method

For `O=c1cc(OCCn2cc(Cn3cc(Cl)c(=O)n(Cc4cn(CCOc5cc(=O)oc6ccccc56)nn4)c3=O)nn2)c2ccccc2o1`, the MIC [1] was 7.23 µg/mL (≈ 10.6 µM) and the “diameter of the inhibition zone (DIZ)” value [2] was 26 mm.
Work on `CCn1cc(C(=O)O)c(=O)c2cc(F)c(N3CCNCC3)cc21` [NORFLOXACIN] yielded an MIC [3] of 0.125 µg/mL (≈ 0.391 µM), an MIC [4] of 0.125 µg/mL (≈ 0.391 µM) and an MIC [5] of 0.125 µg/mL (≈ 0.391 µM).
For `Cc1ccc(NC(=O)Cn2cc(COc3ccc(C(=O)/C=C/c4ccc([N+](=O)[O-])cc4)cc3)nn2)cc1`, the MIC [6] was 125 µM and the MIC [7] was 125 µM (≈ 62.2 µg/mL).
`O=C(O)c1cn(C2CC2)c2cc(N3CCNCC3)c(F)cc2c1=O` [CIPROFLOXACIN] showed an MIC [8] of 9 µM (≈ 2.98 µg/mL), an MIC [9] of 18 µg/mL (≈ 54.3 µM) and an MIC [10] of 9 µM (≈ 2.98 µg/mL). It also gave an MIC [11] of 12.5 µg/mL (≈ 37.7 µM), an MIC [12] of 3.12 µg/mL (≈ 9.43 µM) and an MIC [13] of 12.5 µg/mL (≈ 37.7 µM). For the same molecule, the MIC [14] was 12.5 µg/mL (≈ 37.7 µM), the MIC [15] was 18 µg/mL (≈ 54.3 µM) and the MIC [16] was 8 µg/mL (≈ 24.1 µM). It also gave an MIC [17] of 16 µg/mL (≈ 48.3 µM).
`CN[C@H](CC(C)C)C(=O)N[C@H]1C(=O)N[C@@H](CC(N)=O)C(=O)N[C@H]2C(=O)N[C@H]3C(=O)N[C@H](C(=O)N[C@H](C(=O)O)c4cc(O)cc(O)c4-c4cc3ccc4O)[C@H](O)c3ccc(c(Cl)c3)Oc3cc2cc(c3O[C@@H]2O[C@H](CO)[C@@H](O)[C@H](O)[C@H]2O[C@H]2C[C@](C)(N)[C@H](O)[C@H](C)O2)Oc2ccc(cc2Cl)[C@H]1O` [VANCOMYCIN] showed an MIC [18] of 0.5 µg/mL (≈ 0.345 µM), an MIC [19] of 0.5 µg/mL (≈ 0.345 µM) and an MIC [20] of 0.5 µg/mL (≈ 0.345 µM). The MIC [21] was 0.25 µg/mL, the MIC [22] was 0.25 µg/mL and the MIC [23] was 0.25 µg/mL. For the same molecule, the MIC [24] was greater than 88.3 µM.
In the case of `OC(Cn1cncn1)(Cn1cncn1)c1ccc(F)cc1F` [FLUCONAZOLE], the MIC [10] is reported as 40 µM (≈ 12.3 µg/mL), the MIC [6] is reported as 20.4 µg/mL and the MIC [25] is reported as 40 µM (≈ 12.3 µg/mL). It also gave an MIC [26] of 4 µg/mL (≈ 13.1 µM), an MIC [27] of 4 µg/mL (≈ 13.1 µM) and an MIC80 [28] of 0.25 µg/mL (≈ 0.816 µM). The MIC80 [29] was 0.5 µg/mL (≈ 1.63 µM), the MIC80 [30] was 2 µg/mL (≈ 6.53 µM) and the MIC80 [31] was 1 µg/mL (≈ 3.27 µM). It also gave an MIC80 [32] greater than 64 µg/mL, an MIC80 [33] of 8 µg/mL (≈ 26.1 µM) and an MIC80 [34] of 32 µg/mL (≈ 104 µM). The MIC [35] was 0.5 µg/mL (≈ 1.63 µM), the MIC [36] was 0.5 µg/mL (≈ 1.63 µM) and the MIC [37] was 0.5 µg/mL (≈ 1.63 µM). The MIC [38] was 0.5 µg/mL (≈ 1.63 µM), the MIC [39] was 0.5 µg/mL (≈ 1.63 µM) and the MIC [40] was 16 µg/mL (≈ 52.2 µM). It also gave an MIC [41] of 4 µg/mL (≈ 13.1 µM) and an MIC [42] of 1 µg/mL (≈ 3.27 µM).
`CCCCCCCCCCCCCCCc1nnc(S)n1/N=C\c1cc(OC)c(OC)c(OC)c1` was tested, and the MIC [43] was 24.7 µg/mL (≈ 48.9 µM), the MIC [9] was 24.7 µg/mL (≈ 48.9 µM) and the MIC [15] was 12.3 µg/mL (≈ 24.4 µM).
For `CCn1cc(C(=O)O)c(=O)c2cc(F)c(N3CCN(Cn4nc(-c5ccncc5)n(-c5ccc(OC)cc5)c4=S)CC3)cc21`, the MIC [3] was 0.125 µg/mL (≈ 0.203 µM), the MIC [4] was 0.125 µg/mL (≈ 0.203 µM) and the MIC [5] was 0.125 µg/mL (≈ 0.203 µM).
Work on `Sc1nncn1/N=C/c1cccc(Oc2ccccc2)c1` yielded a zone of inhibition at 100 µg/mL [44] of 15 mm, a zone of inhibition at 100 µg/mL [45] of 15 mm and a zone of inhibition at 100 µg/mL [46] of 15 mm.
With `O=C(CNN1C(=O)CSC1c1ccc(-c2ccc(F)cc2)cc1)NN1C(c2ccncc2)=NNC1S` (stereo unspecified) the MIC [47] was 3.12 µg/mL (≈ 5.97 µM), the MIC [48] was 3.12 µg/mL (≈ 5.97 µM) and the MIC [49] was 3.12 µg/mL (≈ 5.97 µM). It also gave an MIC [50] of 3.12 µg/mL (≈ 5.97 µM) and an MIC [51] of 3.12 µg/mL (≈ 5.97 µM).
Molecule `O=C(CNN1C(=O)CSC1c1ccc(-c2ccc(F)cc2)cc1)NN1C(c2ccc([N+](=O)[O-])cc2)=NNC1S` (stereo unspecified) has an MIC [47] of 3.12 µg/mL (≈ 5.51 µM), an MIC [48] of 3.12 µg/mL (≈ 5.51 µM) and an MIC [49] of 3.12 µg/mL (≈ 5.51 µM). For the same molecule, the MIC [50] was 3.12 µg/mL (≈ 5.51 µM) and the MIC [51] was 3.12 µg/mL (≈ 5.51 µM).
With `O=C(Cn1cc(COc2cccc(/C=N/c3ccc(F)cc3)c2)nn1)Nc1ccc(Br)cc1` the MIC [52] was 12 µM (≈ 6.1 µg/mL) and the MIC [10] was 6 µM (≈ 3.05 µg/mL).
Work on `CC(C)Cc1ccc(C(C)C(=O)NC(Cc2cn(Cc3cn(CC(=O)Nc4ccccc4Cl)nn3)c3ccccc23)C(=O)NC(Cc2ccccc2)C(N)=O)cc1` (stereo unspecified) yielded an MIC [53] of 25 µg/mL (≈ 31.8 µM).
